# Experiments:
# human VEGFR-2 = target: T1, human VEGFR-2 (Homo sapiens, UniProt P35968); assay: In vitro VEGFR-2 inhibitory assay (colorimetric human VEGFR-2 ELISA, HTScan VEGF Receptor 2 Kinase Assay Kit); type: biochemical; conditions: VEGFR-2 inhibition
# T1 construct: It includes active VEGFR-2 kinase; purchased HTScan VEGF Receptor 2 Kinase Assay Kit
# Experimental: VEGFR is considered as an important target for the development of potential anti-cancer candidates.
# On a 96-well plate, a particular VEGFR-2 antibody was seeded and 100 µL of the normal solution or compound tested was applied, incubated at room temperature for 2.5 h and washed.
# Then, 100 µL of the prepared biotin antibody was added, incubated for an additional 1 h at room temperature and washed. Following, 100 µL of streptavidin solution was added at room temperature, incubated for 45 min and then, 100 µL of TMB substrate solution was applied and incubated at room temperature for 30 min. Finally, 50 µL stop solution was added and the absorption was measured at 450 nm instantly. The standard curve, the X-axis concentrations, and the Y-axis absorbance were drawn.
# T-47D (Breast cancer) = assay: NCI-60 single-dose anticancer screen; type: cell-based, human; conditions: 10 µM single dose
# Experimental: (§1) Six compounds were selected by the NCI, according to NCI’s DTP selection guidelines, for evaluation of their anticancer activity at a single-dose of 10 µM against 60 human tumours cell lines.
# (§2) In vitro cytotoxicity was performed in NCI according to reported method.
# [1] = test system: HOP-92 (Non-small cell lung cancer); assay: NCI-60 single-dose anticancer screen; type: cell-based, human; conditions: 10 µM single dose
# Experimental: as §1, §2
# IGROV1 (Ovarian cancer) = assay: NCI-60 single-dose anticancer screen; type: cell-based, human; conditions: 10 µM single dose
# Experimental: as §1, §2
# UACC-62 (Melanoma) = assay: NCI-60 single-dose anticancer screen; type: cell-based, human; conditions: 10 µM single dose
# Experimental: as §1, §2
# PC-3 (Prostate cancer) = assay: NCI-60 single-dose anticancer screen; type: cell-based, human; conditions: 10 µM single dose
# Experimental: as §1, §2
# OVCAR-5 (Ovarian cancer) = assay: NCI-60 single-dose anticancer screen; type: cell-based, human; conditions: 10 µM single dose
# Experimental: as §1, §2
# UO-31 (Renal cancer) = assay: NCI-60 single-dose anticancer screen; type: cell-based, human; conditions: 10 µM single dose
# Experimental: as §1, §2
# MDA-MB-435 (Melanoma) = assay: NCI-60 single-dose anticancer screen; type: cell-based, human; conditions: 10 µM single dose
# Experimental: as §1, §2
# BT-549 (Breast cancer) = assay: NCI-60 single-dose anticancer screen; type: cell-based, human; conditions: 10 µM single dose
# Experimental: as §1, §2
# U251 (CNS cancer) = assay: NCI-60 single-dose anticancer screen; type: cell-based, human; conditions: 10 µM single dose
# Experimental: as §1, §2
# DU-145 (Prostate cancer) = assay: NCI-60 single-dose anticancer screen; type: cell-based, human; conditions: 10 µM single dose
# Experimental: as §1, §2
# OVCAR-4 (Ovarian cancer) = assay: NCI-60 single-dose anticancer screen; type: cell-based, human; conditions: 10 µM single dose
# Experimental: as §1, §2
# A498 (Renal cancer) = assay: NCI-60 single-dose anticancer screen; type: cell-based, human; conditions: 10 µM single dose
# Experimental: as §1, §2
# SK-MEL-28 (Melanoma) = assay: NCI-60 single-dose anticancer screen; type: cell-based, human; conditions: 10 µM single dose
# Experimental: as §1, §2
# RXF 393 (Renal cancer) = assay: NCI-60 single-dose anticancer screen; type: cell-based, human; conditions: 10 µM single dose
# Experimental: as §1, §2
# [2] = test system: NCI/ADR-RES (Ovarian cancer); assay: NCI-60 single-dose anticancer screen; type: cell-based, human; conditions: 10 µM single dose
# Experimental: as §1, §2
# HL-60(TB) (Leukaemia) = assay: NCI-60 single-dose anticancer screen; type: cell-based, human; conditions: 10 µM single dose
# Experimental: as §1, §2
# HCC-2998 (Colon cancer) = assay: NCI-60 single-dose anticancer screen; type: cell-based, human; conditions: 10 µM single dose
# Experimental: as §1, §2
# MCF7 (Breast cancer) = assay: NCI-60 single-dose anticancer screen; type: cell-based, human; conditions: 10 µM single dose
# Experimental: as §1, §2
# SW-620 (Colon cancer) = assay: NCI-60 single-dose anticancer screen; type: cell-based, human; conditions: 10 µM single dose
# Experimental: as §1, §2
# [3] = test system: MDA-MB-231/ATCC (Breast cancer); assay: NCI-60 single-dose anticancer screen; type: cell-based, human; conditions: 10 µM single dose
# Experimental: as §1, §2
# ACHN (Renal cancer) = assay: NCI-60 single-dose anticancer screen; type: cell-based, human; conditions: 10 µM single dose
# Experimental: as §1, §2
# SNB-19 (CNS cancer) = assay: NCI-60 single-dose anticancer screen; type: cell-based, human; conditions: 10 µM single dose
# Experimental: as §1, §2
# TK-10 (Renal cancer) = assay: NCI-60 single-dose anticancer screen; type: cell-based, human; conditions: 10 µM single dose
# Experimental: as §1, §2
# KM12 (Colon cancer) = assay: NCI-60 single-dose anticancer screen; type: cell-based, human; conditions: 10 µM single dose
# Experimental: as §1, §2
# OVCAR-8 (Ovarian cancer) = assay: NCI-60 single-dose anticancer screen; type: cell-based, human; conditions: 10 µM single dose
# Experimental: as §1, §2
# [4] = test system: A549/ATCC (Non-small cell lung cancer); assay: NCI-60 single-dose anticancer screen; type: cell-based, human; conditions: 10 µM single dose
# Experimental: as §1, §2
# 786-0 (Renal cancer) = assay: NCI-60 single-dose anticancer screen; type: cell-based, human; conditions: 10 µM single dose
# Experimental: as §1, §2
# SK-MEL-2 (Melanoma) = assay: NCI-60 single-dose anticancer screen; type: cell-based, human; conditions: 10 µM single dose
# Experimental: as §1, §2
# HCT-15 (Colon cancer) = assay: NCI-60 single-dose anticancer screen; type: cell-based, human; conditions: 10 µM single dose
# Experimental: as §1, §2
# [5] = test system: NCI-H460 (Non-small cell lung cancer); assay: NCI-60 single-dose anticancer screen; type: cell-based, human; conditions: 10 µM single dose
# Experimental: as §1, §2
# CCRF-CEM (Leukaemia) = assay: NCI-60 single-dose anticancer screen; type: cell-based, human; conditions: 10 µM single dose
# Experimental: as §1, §2
# LOX IMVI (Melanoma) = assay: NCI-60 single-dose anticancer screen; type: cell-based, human; conditions: 10 µM single dose
# Experimental: as §1, §2
# COLO 205 (Colon cancer) = assay: NCI-60 single-dose anticancer screen; type: cell-based, human; conditions: 10 µM single dose
# Experimental: as §1, §2
# HCT-116 (Colon cancer) = assay: NCI-60 single-dose anticancer screen; type: cell-based, human
# Experimental: as §1, §2
# [6] = test system: EKVX (Non-small cell lung cancer); assay: NCI-60 single-dose anticancer screen; type: cell-based, human; conditions: 10 µM single dose
# Experimental: as §1, §2
# MALME-3M (Melanoma) = assay: NCI-60 single-dose anticancer screen; type: cell-based, human; conditions: 10 µM single dose
# Experimental: as §1, §2
# UACC-257 (Melanoma) = assay: NCI-60 single-dose anticancer screen; type: cell-based, human; conditions: 10 µM single dose
# Experimental: as §1, §2
# SK-OV-3 (Ovarian cancer) = assay: NCI-60 single-dose anticancer screen; type: cell-based, human; conditions: 10 µM single dose
# Experimental: as §1, §2
# M14 (Melanoma) = assay: NCI-60 single-dose anticancer screen; type: cell-based, human; conditions: 10 µM single dose
# Experimental: as §1, §2
# RPMI-8226 (Leukaemia) = assay: NCI-60 single-dose anticancer screen; type: cell-based, human; conditions: 10 µM single dose
# Experimental: as §1, §2
# [7] = Homo sapiens, read-out: cell growth inhibition
# T1 sequence (P35968 20-1356): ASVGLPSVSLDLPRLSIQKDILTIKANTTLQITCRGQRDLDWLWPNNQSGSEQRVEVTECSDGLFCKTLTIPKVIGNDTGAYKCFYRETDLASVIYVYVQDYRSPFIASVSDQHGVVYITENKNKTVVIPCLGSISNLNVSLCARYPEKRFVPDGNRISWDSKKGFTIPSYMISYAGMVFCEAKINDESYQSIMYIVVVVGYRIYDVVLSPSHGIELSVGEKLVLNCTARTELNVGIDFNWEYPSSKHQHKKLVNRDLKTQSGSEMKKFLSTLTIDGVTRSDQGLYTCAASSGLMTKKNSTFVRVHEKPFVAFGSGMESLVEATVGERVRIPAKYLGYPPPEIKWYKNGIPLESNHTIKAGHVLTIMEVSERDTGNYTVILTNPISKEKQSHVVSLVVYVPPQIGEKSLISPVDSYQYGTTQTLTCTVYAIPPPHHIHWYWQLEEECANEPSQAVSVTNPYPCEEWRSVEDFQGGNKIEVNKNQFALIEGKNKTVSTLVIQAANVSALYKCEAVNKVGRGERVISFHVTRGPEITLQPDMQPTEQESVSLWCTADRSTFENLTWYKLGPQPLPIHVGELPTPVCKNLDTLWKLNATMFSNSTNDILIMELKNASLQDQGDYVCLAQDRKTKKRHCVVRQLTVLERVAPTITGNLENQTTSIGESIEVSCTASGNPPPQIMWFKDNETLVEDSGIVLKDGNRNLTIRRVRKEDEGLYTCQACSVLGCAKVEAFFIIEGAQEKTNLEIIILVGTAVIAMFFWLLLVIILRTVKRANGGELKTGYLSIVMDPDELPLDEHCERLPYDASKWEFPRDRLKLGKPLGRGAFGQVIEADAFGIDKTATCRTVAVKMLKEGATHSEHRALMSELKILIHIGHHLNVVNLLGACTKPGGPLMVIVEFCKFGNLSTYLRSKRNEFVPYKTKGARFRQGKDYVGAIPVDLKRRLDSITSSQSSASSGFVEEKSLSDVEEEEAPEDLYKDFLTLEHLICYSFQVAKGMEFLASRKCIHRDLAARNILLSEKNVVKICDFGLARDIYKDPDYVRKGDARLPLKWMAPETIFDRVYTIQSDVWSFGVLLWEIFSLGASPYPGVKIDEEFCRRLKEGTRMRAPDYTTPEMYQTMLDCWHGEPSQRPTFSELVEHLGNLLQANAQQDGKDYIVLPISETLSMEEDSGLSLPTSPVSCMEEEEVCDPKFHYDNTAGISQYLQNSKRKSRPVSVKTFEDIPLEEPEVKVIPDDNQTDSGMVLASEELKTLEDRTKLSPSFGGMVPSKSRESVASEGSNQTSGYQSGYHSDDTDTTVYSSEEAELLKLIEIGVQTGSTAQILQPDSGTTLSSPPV
smiles,measurement,setting,value
"O=C(C=Cc1cccc(F)c1)c1ccc(N2CCNCC2)cc1 [Vd, 3-(3-Fluorophenyl)-1-(4-(piperazin-1-yl)phenyl)prop-2-en-1-one]",IC50,human VEGFR-2,0.8 µM
same,cell growth promotion,T-47D (Breast cancer),87.54%
same,cell growth promotion,[1],58.41%
same,inhibition at 10 µM,[1]; [7],41.6%
same,cell growth promotion,IGROV1 (Ovarian cancer),67.97%
same,cell growth promotion,UACC-62 (Melanoma),79.23%
same,cell growth promotion,PC-3 (Prostate cancer),66.01%
same,cell growth promotion,OVCAR-5 (Ovarian cancer),94.72%
same,cell growth promotion,UO-31 (Renal cancer),76.58%
same,cell growth promotion,MDA-MB-435 (Melanoma),94.27%
same,cell growth promotion,BT-549 (Breast cancer),73.16%
same,cell growth promotion,U251 (CNS cancer),72.39%
same,cell growth promotion,DU-145 (Prostate cancer),77.70%
same,cell growth promotion,OVCAR-4 (Ovarian cancer),80.53%
same,cell growth promotion,A498 (Renal cancer),95.14%
same,cell growth promotion,SK-MEL-28 (Melanoma),109.03%
same,cell growth promotion,RXF 393 (Renal cancer),75.94%
same,cell growth promotion,[2],109.37%
same,cell growth promotion,HL-60(TB) (Leukaemia),60.38%
same,inhibition at 10 µM,HL-60(TB) (Leukaemia); [7],39.2%
same,cell growth promotion,HCC-2998 (Colon cancer),94.99%
same,cell growth promotion,MCF7 (Breast cancer),51.72%
same,inhibition at 10 µM,MCF7 (Breast cancer); [7],48.3%
same,cell growth promotion,SW-620 (Colon cancer),61.08%
same,cell growth promotion,[3],73.60%
same,cell growth promotion,ACHN (Renal cancer),84.70%
same,cell growth promotion,SNB-19 (CNS cancer),71.95%
same,cell growth promotion,TK-10 (Renal cancer),114.19%
same,cell growth promotion,KM12 (Colon cancer),77.75%
same,cell growth promotion,OVCAR-8 (Ovarian cancer),67.16%
same,cell growth promotion,[4],76.84%
same,cell growth promotion,786-0 (Renal cancer),85.24%
same,cell growth promotion,SK-MEL-2 (Melanoma),96.08%
same,cell growth promotion,HCT-15 (Colon cancer),73.49%
same,cell growth promotion,[5],74.45%
same,cell growth promotion,CCRF-CEM (Leukaemia),58.18%
same,inhibition at 10 µM,CCRF-CEM (Leukaemia); [7],41.8%
same,cell growth promotion,LOX IMVI (Melanoma),71.13%
same,cell growth promotion,COLO 205 (Colon cancer),96.91%
same,cell growth promotion,HCT-116 (Colon cancer); 10 µM single dose,42.08%
same,inhibition at 10 µM,HCT-116 (Colon cancer); [7],57.9%
same,cell growth promotion,[6],95.54%
same,cell growth promotion,MALME-3M (Melanoma),94.15%
same,cell growth promotion,UACC-257 (Melanoma),75.92%
same,cell growth promotion,SK-OV-3 (Ovarian cancer),79.98%
same,cell growth promotion,M14 (Melanoma),81.16%
same,cell growth promotion,RPMI-8226 (Leukaemia),76.47%

# — publication PMC7758046, “Novel piperazine–chalcone hybrids and related pyrazoline analogues targeting VEGFR-2 kinase; design, synthesis, molecular docking studies, and anticancer evaluation” (Journal of Enzyme Inhibition and Medicinal Chemistry, 2020)
